Holding throughout (type): binding
In assay [1] the target is HLA B*3501 (Homo sapiens, UniProt P01889, A329T/A93T/A95T/C349S/D201E/D98Y/E176V/E187L/E204Q/E69T/I218V/K202T/L119I/Q94N/R155S/R180L/S121R/S35A/S48A/T118I/V127L/V306I/V36M/Y140S/Y91F).
Assay [2] concerns the target HLA B*5802 (Homo sapiens, UniProt P01889, A329T/C349S/D201E/D98Y/E176V/E187L/E204Q/E69T/G107R/I218V/I90N/K202T/L105A/N104I/N87E/Q89R/Q94S/R106L/R155S/R180L/R86G/S101N/S121W/S35A/S48A/V127L/V306I/V36M/Y140S/Y91M).
The target in assay [3] is HLA A*3001 (Homo sapiens, UniProt P04439, D140H/D185E/E176W/F33S/G80R/H175R/K168Q/R138E/R41S). Kind of assay: biochemical.
Assay [4] deals with HLA B*5101 (Homo sapiens, UniProt P01889, A329T/A93T/A95T/C349S/D138N/D201E/D98Y/E187L/E204Q/E69T/G107R/I218V/K202T/L105A/L119W/N104I/Q94N/R106L/R155S/R180L/S101N/S121T/S35A/S48A/V306I/V36M/Y195H/Y91F).
Assay [5] deals with HLA A*6802 (Homo sapiens, UniProt P04439, A269V/D140Y/D185E/E176V/E277Q/E87N/F33Y/G231S/I121R/I166T/I218V/L180W/L300P/L318F/N151K/P208A/P217A/Q86R/R138H/R169H/S129P/T345S/V36M).
Assay [6] deals with H-2 D^b (Mus musculus, UniProt P01899).
H-2 D^b, sequence (P01887 21-119): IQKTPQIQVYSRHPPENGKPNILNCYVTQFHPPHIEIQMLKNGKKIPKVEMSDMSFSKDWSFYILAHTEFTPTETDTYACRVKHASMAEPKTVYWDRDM
H-2 D^b, sequence (P01899 25-362): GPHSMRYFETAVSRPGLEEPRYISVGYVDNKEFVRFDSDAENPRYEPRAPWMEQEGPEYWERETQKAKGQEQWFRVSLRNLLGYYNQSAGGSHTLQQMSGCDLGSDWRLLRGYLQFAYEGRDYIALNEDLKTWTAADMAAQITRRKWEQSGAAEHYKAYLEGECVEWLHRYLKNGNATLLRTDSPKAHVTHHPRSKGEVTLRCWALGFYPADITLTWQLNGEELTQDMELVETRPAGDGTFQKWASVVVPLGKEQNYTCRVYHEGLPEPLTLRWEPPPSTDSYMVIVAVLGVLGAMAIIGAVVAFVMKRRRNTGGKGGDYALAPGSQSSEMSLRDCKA
Assay [7] has as its target HLA A*3201 (Homo sapiens, UniProt P04439, A270S/D101S/D185E/E176V/E277Q/F133L/G103R/G107R/G231S/H175R/I121M/I218V/I322F/K168Q/L105A/L300P/L318F/M331R/P208A/P217A/Q94H/R106L/R138Q/S129P/T104I/T323A/T345S/V100E/V321M/V358M). Kind of assay: biochemical.
The target of assay [8] is HLA B*0801 (Homo sapiens, UniProt P01889, A93T/A95T/D138N/E176V/E187T/K202T/Q94N/R180D/S35A/V36M/Y33D/Y91F). Kind of assay: biochemical.
Assay [9] has as its target H-2 D^d (Mus musculus, UniProt P01900).
The target in assay [10] is HLA B*1503 (Homo sapiens, UniProt P01889, A329T/A93T/A95T/C349S/D201E/D98Y/E187L/E204Q/K202T/N87E/Q94N/R155S/R180L/S121R/S35A/V306I/V36M/Y140S/Y91S). Kind of assay: biochemical.
Assay [11] deals with HLA B*5301 (Homo sapiens, UniProt P01889, A329T/A93T/A95T/C349S/D201E/D98Y/E176V/E187L/E204Q/E69T/G107R/I218V/K202T/L105A/L119I/N104I/Q94N/R106L/R155S/R180L/S101N/S121R/S35A/S48A/T118I/V127L/V306I/V36M/Y140S/Y91F).
Assay [12] addresses HLA B*5801 (Homo sapiens, UniProt P01889, A329T/C349S/D201E/D98Y/E176V/E187L/E204Q/E69T/G107R/I218V/I90N/K202T/L105A/L119I/N104I/N87E/Q89R/Q94S/R106L/R155S/R180L/R86G/S101N/S121R/S35A/S48A/T118I/V127L/V306I/V36M/Y140S/Y91M).
Assay [13] concerns the target H-2 K^k (Mus musculus, UniProt P04223).
Assay [14] deals with H-2 K^d (Mus musculus, UniProt P01902).
H-2 K^d, sequence (P01887 21-119): as the sequence (P01887 21-119) above
H-2 K^d, sequence (P01902 22-368): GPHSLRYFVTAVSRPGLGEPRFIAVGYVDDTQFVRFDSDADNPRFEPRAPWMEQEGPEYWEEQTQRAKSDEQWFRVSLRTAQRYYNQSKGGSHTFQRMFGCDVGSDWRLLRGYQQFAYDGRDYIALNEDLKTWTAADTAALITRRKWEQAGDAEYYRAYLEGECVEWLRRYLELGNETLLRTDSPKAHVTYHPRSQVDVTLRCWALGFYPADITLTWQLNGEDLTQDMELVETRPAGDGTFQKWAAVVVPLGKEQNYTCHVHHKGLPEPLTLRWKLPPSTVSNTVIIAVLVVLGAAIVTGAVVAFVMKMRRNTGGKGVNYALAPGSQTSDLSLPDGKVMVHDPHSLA
Assay [15] deals with HLA B*1501 (Homo sapiens, UniProt P01889, A329T/A93T/A95T/C349S/D201E/D98Y/E187L/E204Q/E69M/E70A/K202T/N87E/Q94N/R155S/R180W/S121R/S35A/S48A/V306I/V36M/Y140S/Y91S). Briefly: biochemical.
The target of assay [16] is HLA B*5401 (Homo sapiens, UniProt P01889, A329T/C349S/D138N/D201E/E176V/E187T/E204Q/E69G/I76V/K202T/L119W/R155S/R180L/S121T/S35A/S48A/V127L/V306I/V36M/Y140L).

H-2 D^d, sequence (P01900 whole entry, looked up): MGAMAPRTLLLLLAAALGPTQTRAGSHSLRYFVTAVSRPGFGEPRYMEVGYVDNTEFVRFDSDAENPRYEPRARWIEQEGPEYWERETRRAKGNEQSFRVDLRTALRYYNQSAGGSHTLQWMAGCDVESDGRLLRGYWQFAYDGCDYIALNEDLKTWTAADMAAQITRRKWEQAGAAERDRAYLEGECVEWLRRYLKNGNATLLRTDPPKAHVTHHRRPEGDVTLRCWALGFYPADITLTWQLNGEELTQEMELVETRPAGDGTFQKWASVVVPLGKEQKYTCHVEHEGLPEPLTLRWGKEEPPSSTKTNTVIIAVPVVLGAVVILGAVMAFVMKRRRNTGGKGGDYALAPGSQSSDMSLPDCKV
H-2 K^k, sequence (P01887 21-119): as the sequence (P01887 21-119) above
H-2 K^k, sequence (P04223 22-369): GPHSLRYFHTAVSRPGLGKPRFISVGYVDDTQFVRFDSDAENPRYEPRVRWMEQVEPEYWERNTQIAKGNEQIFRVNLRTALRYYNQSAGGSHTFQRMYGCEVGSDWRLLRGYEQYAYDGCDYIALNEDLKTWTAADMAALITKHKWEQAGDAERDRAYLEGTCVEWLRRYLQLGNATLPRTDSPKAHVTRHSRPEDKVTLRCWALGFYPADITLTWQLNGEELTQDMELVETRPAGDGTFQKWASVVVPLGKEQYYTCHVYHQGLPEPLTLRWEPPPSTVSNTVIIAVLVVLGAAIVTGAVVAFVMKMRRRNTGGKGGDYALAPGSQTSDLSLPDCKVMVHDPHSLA

XXXXXEXXX [3064.0104]: the “Normalized average relative binding affinity(ARB)” value in assay [1] came to 0.21; in [2], 0.14; in [3] it was 0.059; in assay [4], 0.12; in [5], 0.75; in [6] it was 0.43. For the same sequence, the “Normalized average relative binding affinity(ARB)” value is 0.35 in assay [7]; 0.023 in [8]; 0.31 in assay [9]; 0.40 in [10]; 0.21 in assay [11]; 0.80 in assay [12]. Also, the “Normalized average relative binding affinity(ARB)” value in assay [13] is reported as 0.18; in assay [14], 0.083; in [15], 0.30; in [16], 0.065.

As for XXXXXFXXX [3064.0105], the “Normalized average relative binding affinity(ARB)” value turned out to be 1.0 in assay [1]; 0.36 in assay [2]; 1.0 in assay [3]; 1.0 in assay [4]; 1.0 in assay [5]; 0.70 in [6]. For the same sequence, the “Normalized average relative binding affinity(ARB)” value in assay [7] was found to be 0.90; in [8] it was 1.0; in assay [9], 0.79; in [10], 1.0; in assay [11] it was 0.86; in assay [12], 0.51. In addition, the “Normalized average relative binding affinity(ARB)” value worked out at 1.0 in assay [13], 0.39 in assay [14], 1.0 in [15] and 0.30 in assay [16].

With XXXXXGXXX [3064.0106], the “Normalized average relative binding affinity(ARB)” value turned out to be 0.33 in assay [1]; 0.16 in assay [2]; 0.18 in [3]; 0.29 in [4]; 0.30 in [5]; 0.76 in assay [6]. Also, the “Normalized average relative binding affinity(ARB)” value in assay [7] is 0.22; in [8], 0.025; in [9], 0.48; in assay [10] it was 0.68; in [11], 0.22; in assay [12] it was 0.31. In addition, the “Normalized average relative binding affinity(ARB)” value is recorded as 0.60 in assay [13], 0.30 in assay [14], 0.35 in assay [15] and 0.14 in [16].

As for XXXXXHXXX [3064.0107], the “Normalized average relative binding affinity(ARB)” value turned out to be 0.26 in assay [1]; 0.27 in [2]; 0.16 in [3]; 0.33 in assay [4]; 0.11 in assay [5]; 0.36 in assay [6]. In addition, the “Normalized average relative binding affinity(ARB)” value in assay [7] is reported as 0.50; in [8] it was 0.12; in assay [9], 0.48; in assay [10], 0.25; in [11] it was 0.30; in assay [12], 0.40. Further, the “Normalized average relative binding affinity(ARB)” value worked out at 0.20 in assay [13], 0.31 in assay [14], 0.28 in assay [15] and 1.0 in assay [16].

As for XXXXXIXXX [3064.0108], the “Normalized average relative binding affinity(ARB)” value in assay [1] turned out to be 0.28; in [2], 0.072; in assay [3], 0.27; in assay [4], 0.74; in [5] it was 0.38; in assay [6], 0.77. In addition, the “Normalized average relative binding affinity(ARB)” value in assay [7] is given as 0.83; in assay [8], 0.048; in assay [9], 0.46; in assay [10], 0.41; in assay [11], 0.41; in assay [12], 0.67. Moreover, the “Normalized average relative binding affinity(ARB)” value was 0.55 in assay [13], 0.36 in assay [14], 0.53 in [15] and 0.81 in assay [16].

For the sequence XXXXXKXXX [3064.0109], the “Normalized average relative binding affinity(ARB)” value turned out to be 0.14 in [1]; 0.21 in [2]; 0.10 in assay [3]; 0.54 in assay [4]; 0.24 in [5]; 0.51 in assay [6]. In addition, the “Normalized average relative binding affinity(ARB)” value in assay [7] is reported as 0.30; in assay [8], 0.073; in [9] it was 0.30; in assay [10] it was 0.26; in assay [11], 0.15; in assay [12], 0.13. Besides, the “Normalized average relative binding affinity(ARB)” value in [13] is 0.34; in assay [14] it was 0.36; in assay [15] it was 0.28; in assay [16], 0.62.
